Reference: PubChem BioAssay AID1918952 (Molecular Pharmacology Branch, DTP, NCI, 2023)

System: LG0703-F948-PDC complex spheroid viability
Assay: Anticancer human tumor LG0703-F948-PDC patient-derived lung adenocarcinoma cell line growth inhibition
Conditions: for IC50: curve of first compound; for viability, T/C: stronger effect = lower value; active = viability on the fitted dose curve at most 10% of control; inactive = the rest
Outline: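 Complex spheroids of tumor cells with HUVEC and human MSCs, exposed to iadademstat combined with other agents. Each agent tested in half-log steps from near clinical Cmax (else 10 microM top), DMSO ≤0.25%.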
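Also: spheroids exposed to agents for seven days before readout.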
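For viability, T/C in this document: 100% = DMSO vehicle control wells as normalization base.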

Cn1ncnc1C1c2n[nH]c(=O)c3cc(F)cc(c23)NC1c1ccc(F)cc1 (stereo not given) + NC1CCC(NC2CC2c2ccccc2)CC1
inactive: viability, T/C (second compound 0.1 µM, first compound 0.000316 µM) 102% | viability, T/C (second compound 0.1 µM, first compound 0.001 µM) 96.2% | viability, T/C (second compound 0.1 µM, first compound 0.00316 µM) 93.1% | viability, T/C (second compound 0.1 µM, first compound 0.01 µM) 104% | viability, T/C (second compound 0.1 µM, first compound 0.0316 µM) 88.4% | viability, T/C (second compound 0.1 µM, first compound 0.1 µM) 97.8% | viability, T/C (second compound 0.316 µM, first compound 0.000316 µM) 111% | viability, T/C (second compound 0.316 µM, first compound 0.001 µM) 108% | viability, T/C (second compound 0.316 µM, first compound 0.00316 µM) 95.8% | viability, T/C (second compound 0.316 µM, first compound 0.01 µM) 113% | viability, T/C (second compound 0.316 µM, first compound 0.0316 µM) 93.1% | viability, T/C (second compound 0.316 µM, first compound 0.1 µM) 96.9% | viability, T/C (second compound 1 µM, first compound 0.000316 µM) 113% | viability, T/C (second compound 1 µM, first compound 0.001 µM) 128% | viability, T/C (second compound 1 µM, first compound 0.00316 µM) 116% | viability, T/C (second compound 1 µM, first compound 0.01 µM) 111% | viability, T/C (second compound 1 µM, first compound 0.0316 µM) 115% | viability, T/C (second compound 1 µM, first compound 0.1 µM) 97.7% | viability, T/C (second compound 3.16 µM, first compound 0.000316 µM) 122% | viability, T/C (second compound 3.16 µM, first compound 0.001 µM) 133% | viability, T/C (second compound 3.16 µM, first compound 0.00316 µM) 115% | viability, T/C (second compound 3.16 µM, first compound 0.01 µM) 123% | viability, T/C (second compound 3.16 µM, first compound 0.0316 µM) 117% | viability, T/C (second compound 3.16 µM, first compound 0.1 µM) 122% | viability, T/C (second compound 10 µM, first compound 0.000316 µM) 108% | viability, T/C (second compound 10 µM, first compound 0.001 µM) 123% | viability, T/C (second compound 10 µM, first compound 0.00316 µM) 115% | viability, T/C (second compound 10 µM, first compound 0.01 µM) 117% | viability, T/C (second compound 10 µM, first compound 0.0316 µM) 111% | viability, T/C (second compound 10 µM, first compound 0.1 µM) 121%
> 0.1 µM: IC50 (second compound 0.1 µM) | IC50 (second compound 0.316 µM) | IC50 (second compound 1 µM) | IC50 (second compound 3.16 µM) | IC50 (second compound 10 µM)
